IC50 and EC50 data for one compound are collected here from patent US12427139B2, “Applications for nicardipine in preparing anti-lung cancer products” (SHANGHAI JIAO TONG UNIVERSITY, priority 2015, dated 2025).

What all share (assay type): cell-based
The subject of test [1] is NCI-H524 non-small cell lung cancer cells. Kind of test: CellTiter-Glo luminescent cell viability assay, NCI-H524 drug screening plate. The settings on record: for IC50: NCI-H524 cells, CellTiter-Glo. On the procedure:
(§1) In example 1, CELLTITER-GLO was used to test nicardipine against non-small cell lung cancer. n) NCI-H524 cells and NCI-H446 cells were handled as described above, and NCI-H524 96-well cell culture plates and NCI-H446 96-well cell culture plates were obtained, respectively. The complete medium for NCI-H524 cells was RPMI-1640 (a live product), Cat #A1049101, with a cells/well density of 16000. a) DMSO was used to dilute the analyte nicardipine to 20 mM for use. b) 79 μL of the 20 mM analyte prepared in step a) was added to the first well in the first row of the dilution plate, and then 54 μL of DMSO solution was added to the second through ninth wells of the first row. 25 μL of solution was aspirated from the first to the second well, and after mixing well 25 μL of solution was aspirated from the second to the third well, and this was repeated until the 9th well in order to ensure that 3.16 dilution of the medication would be carried out one-by-one. b) 95 μl of cell-specific complete medium was added to the working plate, each medication to 9 wells. […] Testing • a) Before testing, the NCI-H524 96-well drug screening plate and the NCI-H446 96-well drug screening plate described in 3 above were stabilized to room temperature for 20-30 minutes. • b) An inverted microscope was used to observe the conditions of each group of cells in the culture plate and their death patterns, and any abnormal conditions were noted and retested. • c) 100 μl of CellTiter-Glo reagent (prepared as described in 1 above) was added to all drug screening plates and mixed evenly. • d) It was thoroughly oscillated in a 96-well microplate oscillator for 2 minutes to allow the cells to undergo full lysis. • e) It was stored away from light at room temperature for 15 minutes before carrying out luminescent signal detection to ensure signal stability. • f) An EnSpire multi-function plate reader was used at 570 nm to read the luminescent signals. • g) Data was processed and analyzed.
For orientation: Cellular ATP, detected with luciferase, serves as a proxy for viable cell number.

Test [2] concerns NCI-H446 small-cell lung cancer cells. Nature of the test: CellTiter-Glo luminescent cell viability assay, NCI-H446 drug screening plate. The settings on record: for IC50: NCI-H446 cells, CellTiter-Glo. On the procedure: as §1, with “for NCI-H446” for “for NCI-H524”, “of 8000.” for “of 16000.”
Test [3] relates to SNU-449 human hepatoma cells. Kind of test: CellTiter-Glo luminescent cell viability assay, SNU-449 cells (same method). On the procedure:
(§2) In the examples below, the product sources for the NCI-H524 non-small cell lung cancer cells, the NCI-H446 small-cell lung cancer cells, the SNU-449 human hepatoma cells, and the NCI-H810 human lung cancer cells, are as follows: c) The NCI-H524 96 well cell plates and the NCI-H446 96-well cell plates prepared in step 1 were removed from the incubator, and 10 μl of the cell culture media (10× final concentration) with varying drug concentrations as described in b) above was added to the NCI-H524 96-well cell culture and the NCI-H446 96-well cell culture plate row-by-row as shown in FIG. 1. It was placed into a CO2 incubator at 37° C. for 72 hours, obtaining the NCI-H524 96-well drug screening plate and the NCI-H446 96-well drug screening plate. • a) The CellTiter-Glo reagent buffer was thawed before using and stabilized to room temperature for use. • b) The CellTiter-Glo reagent frozen substrate was thawed before using and stabilized to room temperature for use. • c) 100 ml of stabilized CellTiter-Glo buffer was added to the container with CellTiter-Glo reagent frozen substrate to adequately resuspend it to form an enzyme/substrate mixture, also referred to as the CellTiter-Glo assay reagent. • d) It was gently mixed and vortexed and inverted multiple times to achieve a uniform solution. In general, the CellTiter-Glo substrate reagent will adequately dissolve within 1 minute. […]

Test [4] concerns NCI-H810 human lung cancer cells. Kind of test: CellTiter-Glo luminescent cell viability assay, NCI-H810 cells (same method). On the procedure:
as §2

Turning to `COC(=O)C1=C(C)NC(C)=C(C(=O)OCCN(C)Cc2ccccc2)C1c1cccc([N+](=O)[O-])c1` (centres unmarked) [nicardipine], the half-inhibitory concentration (IC50) is 18.6 µM in test [1] (Homo sapiens, NCI-H524, 72 h); 18.6 µM in test [1] (72 hours); 18.4 µM in test [2] (Homo sapiens, NCI-H446, 72 h); 18.4 µM in test [2] (72 hours); no less than 100 µM in test [3]; no less than 100 µM in test [4]. Moreover, the EC50 was found to be 20.3 µM in test [1] (Homo sapiens, FIG. 2, nicardipine sensitivity to non-small cell lung cancer (NCI-H524), 72 hours) and 18 µM in test [2] (Homo sapiens, FIG. 3, nicardipine sensitivity to small cell lung cancer (NCI-H446), 72 hours).

Broadly, the IC50 is the concentration that gives 50% inhibition. Low readings indicate higher potency, high ones lower potency. In general, EC50 refers to the concentration at which the effect is half-maximal.
